Reference: BindingDB's records for doi:10.1016/s0960-894x(01)00044-0 (Novartis Institute For Medical Sciences, 2001)

What was measured:
Substance-P receptor = Substance-P receptor (Cavia porcellus, UniProt P30547); experiment: ChEBML_205410
Text: In vitro binding affinity against Tachykinin receptor 1 in guinea pig ileum using organ bath assay

[1] = In vitro binding affinity against Tachykinin receptor 1 in rabbit whole brain membranes using [3H][Sar9Met(O2)]-SP binding assay

Substance-P receptor, sequence (P30547 whole entry): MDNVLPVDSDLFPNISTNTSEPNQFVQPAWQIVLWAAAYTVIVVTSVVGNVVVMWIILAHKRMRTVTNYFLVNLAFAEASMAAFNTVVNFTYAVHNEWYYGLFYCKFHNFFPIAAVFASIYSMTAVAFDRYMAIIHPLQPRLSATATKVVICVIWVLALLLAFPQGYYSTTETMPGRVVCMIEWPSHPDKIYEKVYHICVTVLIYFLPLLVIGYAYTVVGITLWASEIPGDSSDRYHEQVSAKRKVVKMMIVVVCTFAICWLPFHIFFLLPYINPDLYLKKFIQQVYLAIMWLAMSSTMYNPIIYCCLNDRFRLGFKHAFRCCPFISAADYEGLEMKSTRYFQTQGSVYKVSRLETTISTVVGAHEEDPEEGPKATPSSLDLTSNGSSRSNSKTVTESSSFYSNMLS

Row | IC50 (Substance-P receptor) [µM] | IC50 [1] [µM] | SMILES
1 | > 100 | – | CSCCNS(=O)(=O)c1ccc(NNC(=S)N2CCCC2C(=O)NCc2ccccc2)c([N+](=O)[O-])c1 (configuration not stated)
2 | – | > 50 | CSCCNS(=O)(=O)c1ccc(NNC(=S)N2CCCC2C(=O)NC(c2ccccc2)c2ccccc2)c([N+](=O)[O-])c1 (configuration not stated)
